Measured values: patent US8357710B2, “Bicyclic angiotensin II agonists” (Vicore Pharma AB, priority 2005, dated 2013)

Columns and labels:
AT2 receptor = biological target: T1, AT2 receptor (Sus scrofa, UniProt A0A4X1W622); settings: read-out: dissociation constant (Kd), AT2 receptor; Scatchard analysis, porcine myometrial membranes, [L]=0.057 nM
T1 sequence (A0A4X1W622 1-362): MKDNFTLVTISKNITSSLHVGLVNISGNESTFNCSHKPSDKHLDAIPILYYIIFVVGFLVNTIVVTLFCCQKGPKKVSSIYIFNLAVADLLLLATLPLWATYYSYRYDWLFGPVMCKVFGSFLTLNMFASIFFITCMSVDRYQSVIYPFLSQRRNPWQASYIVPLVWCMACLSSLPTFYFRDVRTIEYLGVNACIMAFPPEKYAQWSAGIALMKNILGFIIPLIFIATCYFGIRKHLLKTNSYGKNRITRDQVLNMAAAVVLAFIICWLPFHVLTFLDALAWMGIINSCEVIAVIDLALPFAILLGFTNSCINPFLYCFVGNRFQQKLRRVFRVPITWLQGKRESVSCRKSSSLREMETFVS
Procedure: Myometrial membranes were prepared from porcine uteri according to the method by Nielsen et al (Clin. Exp. Pharm. Phys. (1997) 24, 309). […] Samples were incubated at 25° C. for 1 h, and binding was terminated by filtration through Whatman GF/B glass-fiber filter sheets using a Brandel cell harvester. The filters were washed with 3×3 mL of Tris-HCl (pH 7.4) and transferred to tubes. The radioactivity was measured using a gamma counter. […] The binding data were best fitted with a one-site fit. All experiments were performed at least in triplicate.

[1] = tested on: duodenal mucosal alkaline secretion; experiment: Test C: duodenal mucosal alkaline secretion assay in barbiturate-anaesthetised rats; format: in vivo, rat; settings: co-administration with title compounds of the Examples
Source text: Duodenal Mucosal Alkaline Secretion Assay
Compounds were exposed to the duodenal mucosa in barbiturate-anaesthetised rats prepared for in situ titration of duodenal mucosal alkaline secretion, according to the methodology described by Flemström et al in Am. J. Physiol. (1982) 243, G348.

Kd (AT2 receptor) [nM] | Compound | effect of co-administration on the stimulation of mucosal alkalisation by the title compounds [1]
0.7 ± 0.1 | Asp^1-Arg^2-Val^3-Tyr^4-Ile^5-His^6-Pro^7-Phe^8 [Ang II] | 
 | Cc1cc(Cn2cnc3c2C[C@@H](C(=O)O)N(C(=O)C(c2ccccc2)c2ccccc2)C3)ccc1N(C)C [PD123319] | blocked
